Experimental data from patent USRE47689E1, “Compounds for treating spinal muscular atrophy” (PTC Therapeutics, Inc., priority 2011, dated 2019).
Where two headings read alike, the source gives them in different places.

Legend:
[1] = test system: Smn protein; assay: Smn protein assay in cultured cells (SMN HTRF); type: cell-based, human; details: 48 hours; for EC1.5x (concentration giving 1.5-fold Smn protein increase): SMA Type 1 patient fibroblast cells (GM03813), 7-point concentration curve, SMN HTRF, concentration producing 1.5 times Smn protein vs DMSO vehicle control, read-out: EC1.5x for Smn protein expression; for maximum fold (Fold) increase of Smn protein: SMA patient fibroblast cells, 7-point concentration data, fold increase relative to vehicle control (SMN HTRF)
Summary of the method: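 Lysates in RIPA with protease inhibitors are incubated overnight at room temperature with HTRF anti-SMN antibodies. EC1.5x is derived from fold increase in ΔF over vehicle.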

[2] = test system: SMN2 minigene (full length SMN2 minigene mRNA containing SMN2 exon 7); assay: SMN2 minigene mRNA splicing RT-qPCR assay in cultured cells; type: cell-based, human; details: Homo sapiens, HEK293-H, read-out: EC1.5x for production of full length SMN2 mRNA
Summary of the method: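 Read-out: full-length (exon 7-included) SMN2 minigene mRNA by multiplex RT-qPCR with GAPDH, efficiency-corrected (1+E)^−Ct, GAPDH-normalized and divided by vehicle. Stably transfected HEK293H cells, 24 h compound exposure, duplicates per concentration. Value is EC1.5x, reported as star ranges.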

[3] = HEK293H cells stably transfected with SMN2-A minigene, 24 hours, 7-point concentration curve, 1.5-fold relative to vehicle-treated cells

Row | SMILES | melting point | EC1.5x (concentration giving 1.5-fold Smn protein increase) [1] | maximum fold (Fold) increase of Smn protein [1] | EC (1.5-fold) [2, 3] | EC (1.5-fold) ([2]; 24 h)
1 | O=c1oc2cc(N3CCNCC3)ccc2cc1-c1cn2cccc(Cl)c2n1 [Compound 83, 3-(8-chloroimidazo[1,2-a]pyridin-2-yl)-7-(piperazin-1-yl)-2H-chromen-2-one] | 196 to 198 °C | 1000 to 3000 nM | **** (fold increase between >1.5 and ≤1.65) | 0.3 to 1 µM | –
2 | Cc1cn2cc(-c3cc4ccc(CCCN5CCOCC5)cc4oc3=O)nc2c(C)n1 [Compound 884, 3-(6,8-dimethylimidazo[1,2-a]pyrazin-2-yl)-7-[3-(morpholin-4-yl)propyl]-2H-chromen-2-one] | 168 to 172 °C | < 300 nM | ***** (fold increase >1.65) | < 0.1 µM | –
3 | O=c1oc2cc(N3CCNCC3)ccc2cc1-c1cn2cc(F)cc(F)c2n1 [Compound 532, 3-(6,8-difluoroimidazo[1,2-a]pyridin-2-yl)-7-(piperazin-1-yl)-2H-chromen-2-one] | 276 to 286 °C | – | * (maximum fold increase of ≤1.2) | 0.3 to 1 µM | –
4 | Cc1nccn2cc(-c3cc4ccc(N5CCN[C@H](C)C5)cc4oc3=O)cc12 [Compound 586, 7-[(3R)-3-methylpiperazin-1-yl]-3-(1-methylpyrrolo[1,2-a]pyrazin-7-yl)-2H-chromen-2-one] | 212 to 215 °C | < 300 nM | *** (fold increase between >1.35 and ≤1.5) | < 0.1 µM | –
5 | CN1CCN(c2ccc3cc(-c4cc5ccccn5n4)c(=O)oc3c2)CC1 [Compound 188, 7-(4-methylpiperazin-1-yl)-3-(pyrazolo[1,5-a]pyridin-2-yl)-2H-chromen-2-one] | 235 to 237 °C | 3000 to 10000 nM | *** (fold increase between >1.35 and ≤1.5) | 0.3 to 1 µM | –
6 | Cc1cc(Cl)cn2cc(-c3cc4ccc(N5C[C@@H](C)N[C@@H](C)C5)cc4oc3=O)nc12 [Compound 265, 3-(6-chloro-8-methylimidazo[1,2-a]pyridin-2-yl)-7-[(3R,5S)-3,5-dimethylpiperazin-1-yl]-2H-chromen-2-one] | 271 to 281 °C | – | * (maximum fold increase of ≤1.2) | 1 to 3 µM | –
7 | Cc1ccc2nc(-c3cc4ccc(N5CCCNCC5)cc4oc3=O)cn2n1 [Compound 631, 7-(1,4-diazepan-1-yl)-3-(6-methylimidazo[1,2-b]pyridazin-2-yl)-2H-chromen-2-one] | 252 to 255 °C | – | * (maximum fold increase of ≤1.2) | 0.3 to 1 µM | –
8 | CN(CCO)Cc1ccc2cc(-c3cn4ccsc4n3)c(=O)oc2c1 [Compound 345, 7-{[(2-hydroxyethyl)(methyl)amino]methyl}-3-(imidazo[2,1-b][1,3]thiazol-6-yl)-2H-chromen-2-one] | 145 to 148 °C | 3000 to 10000 nM | *** (fold increase between >1.35 and ≤1.5) | 1 to 3 µM | –
9 | Cc1cn2cc(-c3cc4ccc(N5CCN(C)[C@H](C)C5)cc4oc3=O)ccc2n1 [Compound 661, 7-[(3R)-3,4-dimethylpiperazin-1-yl]-3-(2-methylimidazo[1,2-a]pyridin-6-yl)-2H-chromen-2-one] | 206 to 209 °C | < 300 nM | ***** (fold increase >1.65) | < 0.1 µM | –
10 | Cc1cn2cc(-c3cc4ccc(N[C@@H]5CCN(C(C)C)C5)cc4oc3=O)nc2c(C)n1 [Compound 733, 3-(6,8-dimethylimidazo[1,2-a]pyrazin-2-yl)-7-{[(3R)-1-(propan-2-yl)pyrrolidin-3-yl]amino}-2H-chromen-2-one] | 200 to 207 °C | – | *** (fold increase between >1.35 and ≤1.5) | < 0.1 µM | –
11 | Cc1ccn2cc(-c3cc4ccc(N5CCN[C@H](C)C5)cc4oc3=O)nc2n1 [Compound 228, 3-(7-methylimidazo[1,2-a]pyrimidin-2-yl)-7-[(3R)-3-methylpiperazin-1-yl]-2H-chromen-2-one] | 297 to 300 °C | – | ** (fold increase between >1.2 and ≤1.35) | 0.1 to 0.3 µM | –
12 | Cc1cn2cc(-c3cc4ccc(CCCNCc5ccccc5)cc4oc3=O)nc2c(C)n1 [Cpd 933, 7-[3-(benzylamino)propyl]-3-(6,8-dimethylimidazo[1,2-a]pyrazin-2-yl)-2H-chromen-2-one] | 143 to 147 °C | – | * (maximum fold increase of ≤1.2) | < 0.1 µM | –
13 | Cc1cn2cc(-c3cc4ccc(N5C[C@@H]6CCCN(CCO)[C@@H]6C5)cc4oc3=O)nc2c(C)n1 [Compound 796, 3-(6,8-dimethylimidazo[1,2-a]pyrazin-2-yl)-7-[(4aS,7aS)-1-(2-hydroxyethyl)octahydro-6H-pyrrolo[3,4-b]pyridin-6-yl]-2H-chromen-2-one] | 200 to 210 °C | 300 to 1000 nM | **** (fold increase between >1.5 and ≤1.65) | < 0.1 µM | –
14 | Cc1cn2cc(-c3cc4ccc(N5C[C@@H](O)[C@H](N6CCCC6)C5)cc4oc3=O)cc2c(C)n1 [Compound 751, 3-(1,3-dimethylpyrrolo[1,2-a]pyrazin-7-yl)-7-[(3′R,4′R)-4′-hydroxy-1,3′-bipyrrolidin-1′-yl]-2H-chromen-2-one] | 264 to 268 °C | – | ** (fold increase between >1.2 and ≤1.35) | < 0.1 µM | –
15 | Cc1nccc(-c2cc3ccc(N4CCNCC4)cc3oc2=O)n1.Cl [Cpd 274, 3-(2-methylpyrimidin-4-yl)-7-(piperazin-1-yl)-2H-chromen-2-one hydrochloride] | 200 °C (dec.) | – | ** (fold increase between >1.2 and ≤1.35) | – | 1 to 3 µM
16 | O=c1oc2cc(N3CCNCC3)ccc2cc1-c1ccnc(Cl)c1 [Compound 180, 3-(2-chloropyridin-4-yl)-7-(piperazin-1-yl)-2H-chromen-2-one] | 190 to 192 °C | – | * (maximum fold increase of ≤1.2) | – | < 0.1 µM
17 | O=c1oc2cc(O[C@H]3CCNC3)ccc2cc1-c1nc2ccccc2s1 [Compound 54, 3-(1,3-benzothiazol-2-yl)-7-[(3S)-pyrrolidin-3-yloxy]-2H-chromen-2-one] | 205 to 211 °C | – | * (maximum fold increase of ≤1.2) | 1 to 3 µM | –
18 | CCN1CCC(Oc2ccc3cc(-c4cn5cc(C)nc(C)c5n4)c(=O)oc3c2)CC1 [Compound 898, 3-(6,8-dimethylimidazo[1,2-a]pyrazin-2-yl)-7-[(1-ethylpiperidin-4-yl)oxy]-2H-chromen-2-one] | 175 to 177 °C | < 300 nM | ***** (fold increase >1.65) | < 0.1 µM | –
19 | CC1(C)CN(c2ccc3cc(-c4cn5cccc(Cl)c5n4)c(=O)oc3c2)CCN1 [Compound 249, 3-(8-chloroimidazo[1,2-a]pyridin-2-yl)-7-(3,3-dimethylpiperazin-1-yl)-2H-chromen-2-one] | 216 to 220 °C | – | ** (fold increase between >1.2 and ≤1.35) | 0.3 to 1 µM | –
